Assay results taken from patent US10144742B2 (Millennium Pharmaceuticals, Inc., priority 2014, dated 2018).

Legend:
hNAMPT protein = hNAMPT protein (Homo sapiens (Human), UniProt P43490); assay: NAMPT enzyme assay (TR-FRET/HTRF, BodiPY ligand, anti 6His-Tb); assay type: binding; settings: for IC50: NAMPT IC50 range class, read-out: IC50; for inhibition at 1 µM: read-out: Percent Inhibition
Summary of the method: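 TR-FRET binding assay in which His-tagged human NAMPT with anti-6His-Tb is displaced by compound from a BodiPY ligand, incubated 1 h at rt in the dark. Excitation was at 320 nm, with the 520/486 nm emission ratio read. IC50 was fitted from inhibition relative to DMSO controls.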

PC3 cells = assay: PC3 growth inhibition (Cell-titer glo, 72 hours); assay type: cell-based; settings: compound concentration 1.667 μM, PC3 cells, 72 hours, Cell-titer glo; for inhibition at 1.667 µM: Homo sapiens, PC-3, read-out: Percent Inhibition (PC3 growth inhibition)
Summary of the method: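 PC3 cells in RPMI1640 seeded overnight at 37 °C, 5% CO2, then exposed to compound diluted in AIM serum-free medium for 72 h. Viability by CellTiter-Glo luminescence vs DMSO controls; single-concentration % remaining viability (1 μM or 1.667 μM), or GI50/LD50 from curves.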

Chain of hNAMPT protein (P43490 whole entry): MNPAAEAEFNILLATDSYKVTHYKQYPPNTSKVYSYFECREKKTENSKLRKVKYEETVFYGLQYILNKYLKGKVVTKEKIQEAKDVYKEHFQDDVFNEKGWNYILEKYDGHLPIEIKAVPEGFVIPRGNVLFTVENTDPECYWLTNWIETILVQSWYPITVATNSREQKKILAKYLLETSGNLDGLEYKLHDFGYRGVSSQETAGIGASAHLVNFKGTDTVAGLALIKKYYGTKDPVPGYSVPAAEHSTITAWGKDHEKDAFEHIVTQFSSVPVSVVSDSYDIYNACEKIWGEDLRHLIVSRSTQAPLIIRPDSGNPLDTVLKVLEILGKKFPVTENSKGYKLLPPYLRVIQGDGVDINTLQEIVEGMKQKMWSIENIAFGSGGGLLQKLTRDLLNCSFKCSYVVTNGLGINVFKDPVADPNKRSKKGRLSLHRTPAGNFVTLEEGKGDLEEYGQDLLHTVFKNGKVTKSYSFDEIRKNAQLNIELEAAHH

SMILES	IC50 (hNAMPT protein) [nM]	inhibition at 1 µM (hNAMPT protein; compound concentration 1 μM) [%]	inhibition at 1.667 µM (PC3 cells) [%]	Percent Inhibition (hNAMPT protein; compound concentration 1 μM) [%]	Percent Inhibition (PC3 growth inhibition) (PC3 cells) [%]
O=C(NCCCc1ncc[nH]1)c1ccc2nc(-n3nccn3)c(-c3ccc(F)cc3)nc2c1 [Compound I-330, N-(3-(1H-imidazol-2-yl)propyl)-3-(4-fluorophenyl)-2-(2H-1,2,3-triazol-2-yl)quinoxaline-6-carboxamide]	100 to 500	79	3		
CNC1CC(Oc2nc3ccc(C(=O)NCCCc4ncc[nH]4)cc3nc2-c2ccc(F)cc2)C1 (stereo not drawn) [Compound I-331, 3-(4-fluorophenyl)-N-[3-(1H-imidazol-2-yl)propyl]-2-[3-(methylamino)cyclobutoxy]quinoxaline-6-carboxamide]	< 100	> 99	2		
Cn1cc(COc2nc3ccc(C(=O)NCCCc4ncc[nH]4)cc3nc2-c2ccc(F)cc2)cn1 [Compound I-332, 3-(4-fluorophenyl)-N-[3-(1H-imidazol-2-yl)propyl]-2-[(1-methyl-1H-pyrazol-4-yl)methoxy]quinoxaline-6-carboxamide]	< 100	> 99	34		
COc1cc(-c2nc3cc(C(=O)NCc4ccc5nccn5c4)ccc3nc2-c2ccc(F)cc2)c(F)cn1 [Compound I-333, 3-(5-fluoro-2-methoxypyridin-4-yl)-2-(4-fluorophenyl)-N-(imidazo[1,2-a]pyridin-6-ylmethyl)quinoxaline-6-carboxamide]	100 to 500	63	0		
CC(C)Oc1nc2ccc(C(=O)NCCCc3ncc[nH]3)cc2nc1-c1ccc(Cl)s1 [Compound I-334, 3-(5-chloro-2-thienyl)-N-[3-(1H-imidazol-2-yl)propyl]-2-isopropoxyquinoxaline-6-carboxamide]	< 100	> 99	1		
Cc1cc(C)cc(-c2nc3cc(C(=O)NCCCc4ncc[nH]4)ccc3nc2-c2ccc(F)cc2)c1 [Compound I-335, 3-(3,5-dimethylphenyl)-2-(4-fluorophenyl)-N-[3-(1H-imidazol-2-yl)propyl]quinoxaline-6-carboxamide]	100 to 500	85	2		
Cc1ccc(F)cc1-c1nc2cc(C(=O)NCCCc3ncc[nH]3)ccc2nc1-c1ccc(F)cc1 [Compound I-336, 3-(5-fluoro-2-methylphenyl)-2-(4-fluorophenyl)-N-[3-(1H-imidazol-2-yl)propyl]quinoxaline-6-carboxamide]	100 to 500	88	1		
O=C(NCCCc1ncc[nH]1)c1ccc2nc(-c3ccc(F)cc3)c(-c3cc(F)c(F)cc3F)nc2c1 [Compound I-337, 2-(4-fluorophenyl)-N-[3-(1H-imidazol-2-yl)propyl]-3-(2,4,5-trifluorophenyl)quinoxaline-6-carboxamide]	100 to 500	88	3		
CO[C@H]1C[C@H](Oc2nc3ccc(C(=O)NCCCc4ncc[nH]4)cc3nc2-c2ccc(F)cc2)C1 [Compound I-338, 3-(4-fluorophenyl)-N-[3-(1H-imidazol-2-yl)propyl]-2-[(trans-3-methoxycyclobutyl)oxy]quinoxaline-6-carboxamide]	< 100	> 99	1		
CC(C)Oc1nc2ccc(C(=O)NCCCc3ncc[nH]3)cc2nc1-c1ccc(F)c(F)c1 [Compound I-339, 3-(3,4-difluorophenyl)-N-[3-(1H-imidazol-2-yl)propyl]-2-isopropoxyquinoxaline-6-carboxamide]	< 100	91	1		
O=C(NCCCc1ncc[nH]1)c1ccc2nc(-c3ccc(F)cc3)c(-c3cccs3)nc2c1 [Compound I-340, 2-(4-Fluorophenyl)-N-[3-(1H-imidazol-2-yl)propyl]-3-(2-thienyl)quinoxaline-6-carboxamide]	< 100	> 99	3		
CC(C)(C)OCc1nc2ccc(C(=O)NCCCc3ncc[nH]3)cc2nc1-c1ccc(F)cc1 [Compound I-341, N-(3-(1H-imidazol-2-yl)propyl)-2-(tert-butoxymethyl)-3-(4-fluorophenyl)quinoxaline-6-carboxamide]	100 to 500	73	1		
Cc1ccsc1-c1nc2cc(C(=O)NCCCc3ncc[nH]3)ccc2nc1-c1ccc(F)cc1 [Compound I-342, 2-(4-fluorophenyl)-N-[3-(1H-imidazol-2-yl)propyl]-3-(3-methyl-2-thienyl)quinoxaline-6-carboxamide]	< 100	89	3		
CCOc1ccc(F)c(-c2nc3cc(C(=O)NCCCc4ncc[nH]4)ccc3nc2-c2ccc(F)cc2)c1 [Compound I-343, 3-(5-ethoxy-2-fluorophenyl)-2-(4-fluorophenyl)-N-[3-(1H-imidazol-2-yl)propyl]quinoxaline-6-carboxamide]	100 to 500	82	1		
COc1cc(-c2nc3cc(C(=O)NCCCc4ncc[nH]4)ccc3nc2OC(C)C)ccc1F [Compound I-344, 3-(4-fluoro-3-methoxyphenyl)-N-[3-(1H-imidazol-2-yl)propyl]-2-isopropoxyquinoxaline-6-carboxamide]	< 100			>99	1
CN1CCC(Oc2nc3ccc(C(=O)NCCCc4ncc[nH]4)cc3nc2-c2ccc(F)cc2)CC1 [Compound I-345, 3-(4-fluorophenyl)-N-[3-(1H-imidazol-2-yl)propyl]-2-[(1-methylpiperidin-4-yl)oxy]quinoxaline-6-carboxamide]	< 100	98	2		
CN1CCCCC1COc1nc2ccc(C(=O)NCCCc3ncc[nH]3)cc2nc1-c1ccc(F)cc1 (stereo not drawn) [Compound I-346, 3-(4-fluorophenyl)-N-[3-(1H-imidazol-2-yl)propyl]-2-[(1-methylpiperidin-2-yl)methoxy]quinoxaline-6-carboxamide]	< 100	98	3		
O=C(NCCCc1ncc[nH]1)c1ccc2nc(OCc3cn[nH]c3)c(-c3ccc(F)cc3)nc2c1 [Compound I-347, 3-(4-fluorophenyl)-N-[3-(1H-imidazol-2-yl)propyl]-2-(1H-pyrazol-4-ylmethoxy)quinoxaline-6-carboxamide]	< 100	97	33		
O=C(NCCCc1ncc[nH]1)c1ccc2nc(OCC3COC3)c(-c3ccc(F)cc3)nc2c1 [Compound I-348, 3-(4-fluorophenyl)-N-[3-(1H-imidazol-2-yl)propyl]-2-(oxetan-3-ylmethoxy)quinoxaline-6-carboxamide]	< 100	> 99	3		
CC(Oc1nc2ccc(C(=O)NCCCc3ncc[nH]3)cc2nc1-c1ccc(F)cc1)c1ccccc1 (stereo not drawn) [Compound I-349, 3-(4-fluorophenyl)-N-[3-(1H-imidazol-2-yl)propyl]-2-(1-phenylethoxy)quinoxaline-6-carboxamide]	< 100	91	3		
O=C(NCCCc1ncc[nH]1)c1ccc2nc(-c3ccc(F)cc3)c(-c3cccc(OC(F)(F)F)c3)nc2c1 [Compound I-350, 2-(4-fluorophenyl)-N-[3-(1H-imidazol-2-yl)propyl]-3-[3-(trifluoromethoxy)phenyl]quinoxaline-6-carboxamide]	100 to 500	86	2		
O=C(NCCCc1ncc[nH]1)c1ccc2nc(OCc3ccoc3)c(-c3ccc(F)cc3)nc2c1 [Compound I-351, 3-(4-fluorophenyl)-2-(3-furylmethoxy)-N-[3-(1H-imidazol-2-yl)propyl]quinoxaline-6-carboxamide]	< 100	96	3		
O=C(NCCCc1ncc[nH]1)c1ccc2nc(O[C@@H]3CCOC3)c(-c3ccc(Cl)cc3)nc2c1 [Compound I-352, 3-(4-chlorophenyl)-N-[3-(1H-imidazol-2-yl)propyl]-2-[(3R)-tetrahydrofuran-3-yloxy]quinoxaline-6-carboxamide]	< 100	99	2		
O=C(NCCCc1ncc[nH]1)c1ccc2nc(-c3ccc(F)cc3)c(-c3cc(Cl)ccc3Cl)nc2c1 [Compound I-353, 3-(2,5-dichlorophenyl)-2-(4-fluorophenyl)-N-[3-(1H-imidazol-2-yl)propyl]quinoxaline-6-carboxamide]	< 100	97	2		
COc1ccc(Cl)c(-c2nc3cc(C(=O)NCCCc4ncc[nH]4)ccc3nc2-c2ccc(F)cc2)c1 [Compound I-354, 3-(2-chloro-5-methoxyphenyl)-2-(4-fluorophenyl)-N-[3-(1H-imidazol-2-yl)propyl]quinoxaline-6-carboxamide]	< 100	97	2		
CCOc1cc(-c2nc3cc(C(=O)NCCCc4ncc[nH]4)ccc3nc2-c2ccc(F)cc2)ccc1F [Compound I-355, 3-(3-ethoxy-4-fluorophenyl)-2-(4-fluorophenyl)-N-[3-(1H-imidazol-2-yl)propyl]quinoxaline-6-carboxamide]	< 100	> 99	2		
